Reference: patent US7772255B2, “Method of treating tumors with azaxanthones” (Supratek Pharma, Inc., priority 2005, dated 2010)
Where a name gives a salt, the structure may show the parent alone. Read-outs that look alike come from different tables or passages of the source.

Assays:
CSML100 cells = experiment: CSML100 (murine mammary carcinoma) experimental metastasis model (Example 24); assay type: in vivo, mouse; details: 100 mg/kg/day i.v., 10 daily injections
Method: Amlexanox solution for injections was prepared according to the Example 4. CSML100 cells were inoculated intravenously in 26 female A/J mice (6-7 weeks old). Animals were then divided randomly into two groups: 1) untreated control (n=16, saline) and 2) Amlexanox treated (n=10, 100 mg/kg/day, i.v.; 10 daily injections). The control group received i.v. injections with 5 ml/kg (volume/body weight) of saline, while Amlexanox was administrated intravenously daily with a dose of 100 mg/kg in a volume of 5 ml/kg. Treatment was started on the day following the day of tumor cell implantation and continued for 10 consecutive days. The animal body weight was recorded as an index of treatment toxicity during the experiment. From the day 10 after cell implantation, one animal in the control group was sacrificed every day to monitor the metastasis development. All remaining animals were sacrificed on the day 18 for routine metastasis inspection. Although all organs were routinely screened, metastatic formation was only found in the lungs. The metastatic colonies on the organ surface were enumerated immediately following the removal of the organ.
A maximum body weight loss in treated group was less than 10%. The data are expressed as mean±SEM for the number of metastatic sites on the lung surface.

[1] = Chemical stability of Amlexanox sodium salt solution (HPLC); assay type: physicochemical; details: 20 mg Amlexanox sodium salt in 2 mL Tris buffer pH 7.2; 0.05 molar equivalent of the listed compound; 72 hours, ambient light, access to air; HPLC peak area
Method: 20 mg of crystalline Amlexanox sodium salt was dissolved in a clear glass test tube in 2 mL of Tris buffer, pH 7.2. For each of the stabilizing compounds listed in the Table below, 0.05 molar equivalent of the compound was added to the solution, mixed until dissolved, and left under ambient light, and with access to the air. Concentration of Amlexanox in the sample was determined by HPLC right after preparation, and after 72 hours. The chemical stability of Amlexanox was evaluated by comparison of area under the peak of amlexanox from the two analyses.

[2] = Pharmacokinetics and bioavailability in normal mice; assay type: in vivo, mouse; details: for AUC / Cmax / MRT / clearance / half-life / Vd / bioavailability: female; for Vd: read-out: Vss; for bioavailability: C57BL/6, plasma, po, mouse, sodium salt, read-out: Bioavailability for oral administration
Method: Female C57BL/6 mice were used at 6 to 7 weeks of age. The animals were given food (Purina mouse chow, Pro Lab PMH 4018, Trademark of Agway, Syracuse, N.Y., USA) and water ad libitum. The mice were kept at five per cage under light (12 h light/dark cycle) and temperature (22±1° C.) controlled environment. The animal studies were conducted according to the “Guidelines for Care and Use of Experimental Animals”.
Amlexanox sodium salt dosing solutions for oral administration were prepared by dissolving amlexanox sodium salt, prepared according to Example 10, in distilled water. amlexanox sodium salt dosing solutions for i.v. administration were prepared by dissolving amlexanox sodium salt, prepared according to Example 10, in isotonic solution (0.9% NaCl). Amlexanox meglumine formulation dosing solutions for oral administration were prepared by dissolving amlexanox meglumine formulation F1, prepared according to Example 12, in distilled water. Amlexanox meglumine formulation dosing solutions for i.v. administration were prepared by dissolving amlexanox meglumine formulation F1, prepared according to Example 13, in isotonic solution (0.9% NaCl). 1 mg/mL solution of amlexanox was used for dosing 10 mg/kg, and 10 mg/mL solution was used for dosing 100 mg/kg.
Amlexanox-X dosing solutions were administered i.v. and orally in normal mice (four animals per each time point). After various time intervals (15, 30 min and 1, 3, 6 and 8 h for Amlexanox-X Na salt and 15, 30 min, 1, 2 and 6 h for Amlexanox-X+MG) post-injection, blood and major organs (liver, kidney, lung and brain) were collected. Then, blood was immediately centrifuged, and plasma was separated. The plasma and tissue samples were immediately frozen in dry ice and stored at −80° C. until further use.
The defrosted plasma samples were centrifuged at 2000 g for 5 min, and aliquots (10 μL) of each sample were transferred into 1.5-ml plastic tubes. The samples were diluted with PBS in various amounts of times and aliquots of 100 μL were transferred into the other 1.5-ml plastic tubes. The samples were extracted with 1 mL of 100% acetonitrile for 10 min on 180° rotator. Then, the tubes were centrifuged at 10,000 g for 15 min.
The supernatant was separated to glass tubes and evaporated in a stream of nitrogen at […]. until dryness. The dried samples were kept at −20° C. until HPLC analysis. The samples were reconstituted in 100 μL of mobile phase analyze before analyze by HPLC.
The samples were analysed by HPLC using 250×4.6 mm, Phenomenex C18 Luna, 5 micron column, 1 mL/min flow rate of mobile phase 73% of 25 mM sodium phosphate pH 7.5 and 27% acetonitrile; fluorescent deyection λexcitation=348 nm, λemission=404 nm.
The concentrations of amlexanox in samples were determined by comparison with calibration curve obtained from spiked mouse plasma samples using the same analytical method. The areas under the curves (AUC) of amlexanox were calculated by trapezoidal method. Main pharmacokinetic parameters of amlexanox and bioavailability if amlexanox Na salt and amlexanox with meglumine formulation are shown in Tables below.

[3] = C57BL/6, iv, mouse plasma, i.v., 10 mg/kg
[4] = C57BL/6, iv, mouse plasma, i.v., 100 mg/kg
[5] = C57BL/6, mouse plasma, oral, 10 mg/kg
[6] = C57BL/6, mouse plasma, oral, 100 mg/kg

CC(C)c1ccc2oc3nc(N)c(C(=O)O)cc3c(=O)c2c1 [Amlexanox, 2-amino-7-isopropyl-1-azaxanthone-3-carboxylic acid]
Average of lung metastasis number per animal (sample number) (CSML100 cells; CSML100 cells i.v. in female A/J mice, day 18, mean±SEM): 18.8 ± 2.3 (9) | Treated/control × 100% (CSML100 cells; lung metastasis number, day 18): 48.5% | maximum body weight loss (CSML100 cells; treated group, A/J mice): less than 10%

CC(C)c1ccc2oc3nc(N)c(C(=O)O)cc3c(=O)c2c1 [Amlexanox (salt), 2-amino-7-isopropyl-1-azaxanthone-3-carboxylic acid sodium salt]
Retained Amlexnox [1]: 93.8% | AUC [2, 3]: 31.3 µg·h/mL | Cmax [2, 3]: 55.7 µg/mL | MRT [2, 3]: 0.5 h | clearance [2, 3]: 5 mL/min/kg | half-life [2, 3]: 24 min | Vd [2, 3]: 0.2 L/kg | AUC [2, 4]: 734 µg·h/mL | Cmax [2, 4]: 590 µg/mL | MRT [2, 4]: 1.2 h | clearance [2, 4]: 0.167 mL/min/kg | half-life [2, 4]: 48 min | Vd [2, 4]: 0.02 L/kg | bioavailability ([2]; 10 mg/kg): 61.7% | bioavailability ([2]; 100 mg/kg): 41.1% | AUC [2, 5]: 19.3 µg·h/mL | Cmax [2, 5]: 17.6 µg/mL | MRT [2, 5]: 1.6 h | half-life [2, 5]: 66 min | AUC [2, 6]: 302 µg·h/mL | Cmax [2, 6]: 206 µg/mL | MRT [2, 6]: 2.2 h | half-life [2, 6]: 90 min | CL ([2]; mouse plasma, oral, 10 mg/kg): 0.5 L/kg/h | Vss ([2]; mouse plasma, oral, 10 mg/kg): 0.8 L/kg | Vss ([2]; mouse plasma, oral, 100 mg/kg): 0.07 L/kg
